From publication PMC11199504, “New hemisynthetic derivatives of sphaeropsidin phytotoxins triggering severe endoplasmic reticulum swelling in cancer cells” (Scientific Reports, 2024)
Read-outs that look alike come from different tables or passages of the source. Each block holds one molecule with its values, some of them ahead of it.

What was measured:
[1] = test system: A549; design: method as in doi:10.1016/j.phytol.2012.08.011; settings: 72 h treatment; read-out: IC50 determined by MTT assays, A549; cited from earlier work
[2] = test system: SKMEL-28; design: method as in doi:10.1016/j.phytol.2012.08.011; settings: 72 h treatment; read-out: IC50 determined by MTT assays, SKMEL-28; cited from earlier work
[3] = test system: U373; design: method as in doi:10.1016/j.phytol.2012.08.011; settings: 72 h treatment; read-out: IC50 determined by MTT assays, U373; cited from earlier work
[4] = test system: Hs683; design: method as in doi:10.1016/j.phytol.2012.08.011; settings: 72 h treatment; read-out: IC50 determined by MTT assays, Hs683; cited from earlier work
[5] = test system: B16F10; design: method as in doi:10.1016/j.phytol.2012.08.011; settings: 72 h treatment; read-out: IC50 determined by MTT assays, B16F10; cited from earlier work
[6] = test system: A549, SKMEL-28, U373, MCF7, Hs683, B16F10; design: method as in doi:10.1016/j.phytol.2012.08.011; settings: mean over cell lines (MCF7 not available); read-out: IC50 determined by MTT assays, Mean; cited from earlier work
[7] = test system: A549; experiment: MTT colorimetric assay, A549; assay type: cell-based; settings: Homo sapiens, 72 h treatment, mean ± SEM of six replicates of one experiment (1: 7, 13: 6 independent experiments), resistant to apoptosis, read-out: IC50 determined by MTT assays, A549
From the text: (§1) Cancer cell lines were obtained from either the European Collection of Cell Cultures (ECACC; Salisbury, UK) or the American Type Culture Collection (ATCC; Manassas, VA). The two glioma cell lines were the U373 (ECACC code 08061901) and Hs683 (ATCC HTB-138) cell lines. The carcinoma cell lines were the A549 non-small cell carcinoma cell line (ATCC code CCL 185) and the MCF-7 mammary breast carcinoma cell line (ATCC code HTB-22). The melanoma cell lines were the mouse B16F10 cells (ATCC code CRL-6475) and the human SKMEL-28 cells (ATCC code HTB-72). The ovarian cancer cell line A2780 and its cisplatin-resistant subline A2780cis were obtained from Sigma-Aldrich (St. Louis, MO, USA). Colon cancer HCT116 cells were obtained from ATCC (CCL-247) and the oxaliplatin-resistant subline HCT116/OxR established in the W. Berger lab[59]. The HeLa cell derivative KB-3-1 and the colchicine-selected, highly ABCB1-overexpressing subline KB-C-1 were generously donated by Dr. D. W. Shen, Bethesda, MD. RKOp53wt colon cancer cells together with the RKOp53KO (homozygous knock-out) subline[60] were generously provided by Dr. Vogelstein from John Hopkins University, Baltimore. The correct origin of all cell models was confirmed by STR during performance of the experiments. All cell lines were cultured in RPMI1640 culture medium supplemented with 10% heat-inactivated fetal bovine serum, 2% L-glutamine (0.6 mg/mL), 2% penicillin/streptomycin (200 IU/mL and 200 μg/mL) and 0.1 mg/mL gentamicin.
(§2) The MTT (3-(4,5-dimethylthiazol-2-yl)-2,5-diphenyl tetrazolium bromide) colorimetric assay has been conducted as described previously. Briefly, cells were seeded 24 h before their treatment with each compound for a period of 72 h. The concentrations tested ranged from 10 nM to 100 µM. Each assay was conducted in sextuplicates. The number of independent experiments is mentioned in the legend of the tables.

[8] = test system: SKMEL-28; experiment: MTT colorimetric assay, SKMEL-28; assay type: cell-based; settings: Homo sapiens, SK-MEL-28; 72 h treatment; mean ± SEM; resistant to apoptosis; read-out: IC50 determined by MTT assays, SKMEL-28
From the text: as §1, §2

[9] = test system: U373; experiment: MTT colorimetric assay, U373; assay type: cell-based; settings: Homo sapiens, U373 MG; 72 h treatment; mean ± SEM; resistant to apoptosis; read-out: IC50 determined by MTT assays, U373
From the text: as §1, §2

[10] = test system: MCF7; experiment: MTT colorimetric assay, MCF7; assay type: cell-based; settings: Homo sapiens, 72 h treatment, mean ± SEM, sensitive to apoptosis, read-out: IC50 determined by MTT assays, MCF7
From the text: as §1, §2

[11] = test system: Hs683; experiment: MTT colorimetric assay, Hs683; assay type: cell-based; settings: Homo sapiens, Hs 683; 72 h treatment; mean ± SEM; sensitive to apoptosis; read-out: IC50 determined by MTT assays, Hs683
From the text: as §1, §2

[12] = test system: B16F10; experiment: MTT colorimetric assay, B16F10; assay type: cell-based; settings: Mus musculus, B16-F10; 72 h treatment; mean ± SEM; sensitive to apoptosis; read-out: IC50 determined by MTT assays, B16F10
From the text: as §1, §2

[13] = test system: A549, SKMEL-28, U373, MCF7, Hs683, B16F10; experiment: MTT colorimetric assay, mean of the six cell lines; assay type: cell-based; settings: 72 h, mean over the six cell lines; 72 h treatment; read-out: IC50 determined by MTT assays, Mean
From the text: as §1, §2

[14] = test system: A2780; experiment: MTT assay, A2780 (parental sensitive); assay type: cell-based; settings: Homo sapiens, A2780; 72 h treatment; ± standard deviation; parental sensitive model; read-out: IC50 determined by MTT assays, A2780
From the text: as §1, §2
(§3) SI Table 1: IC50 determined by MTT assays. Mean concentration (± standard deviation) in µM required to
(§4) reduce the viability of cells by 50% after a 72 h treatment relative to the control.
(§5) Parental sensitive models Drug-resistant models

[15] = test system: Hct116; experiment: MTT assay, Hct116 (parental sensitive); assay type: cell-based; settings: Homo sapiens, HCT-116; 72 h treatment; ± standard deviation; parental sensitive model; read-out: IC50 determined by MTT assays, Hct116
From the text: as §1, §2, §3, §4, §5

[16] = test system: RKO/P53wt; experiment: MTT assay, RKO/P53wt (parental sensitive); assay type: cell-based; settings: 72 h treatment; ± standard deviation; parental sensitive model; read-out: IC50 determined by MTT assays, RKO/P53wt
From the text: as §1, §2, §3, §4, §5

[17] = test system: KB-3-1; experiment: MTT assay, KB-3-1 (parental sensitive); assay type: cell-based; settings: Homo sapiens, KB 3-1; 72 h treatment; ± standard deviation; parental sensitive model; read-out: IC50 determined by MTT assays, KB-3-1
From the text: as §1, §2, §3, §4, §5

[18] = test system: Parental sensitive models; experiment: MTT assay, mean of parental sensitive models; assay type: cell-based; settings: 72 h treatment; read-out: IC50 determined by MTT assays, mean of parental sensitive models
From the text: as §1, §2, §3, §4, §5

[19] = test system: A2780R; experiment: MTT assay, A2780R (cisplatin-resistant); assay type: cell-based; settings: 72 h treatment; ± standard deviation; drug-resistant model; read-out: IC50 determined by MTT assays, A2780R
From the text: as §1, §2, §3, §4, §5

[20] = test system: Hct116/OxR; experiment: MTT assay, Hct116/OxR (oxaliplatin-resistant); assay type: cell-based; settings: Homo sapiens, HCT-116; 72 h treatment; ± standard deviation; drug-resistant model; read-out: IC50 determined by MTT assays, Hct116/OxR
From the text: as §1, §2, §3, §4, §5

[21] = test system: RKO/p53ko; experiment: MTT assay, RKO/p53ko; assay type: cell-based; settings: 72 h treatment; ± standard deviation; drug-resistant model; read-out: IC50 determined by MTT assays, RKO/p53ko
From the text: as §1, §2, §3, §4, §5

[22] = test system: KB-C-1; experiment: MTT assay, KB-C-1 (ABCB1-overexpressing); assay type: cell-based; settings: KBC-1; 72 h treatment; ± standard deviation; drug-resistant model; read-out: IC50 determined by MTT assays, KB-C-1
From the text: as §1, §2, §3, §4, §5

[23] = test system: Drug-resistant models; experiment: MTT assay, mean of drug-resistant models; assay type: cell-based; settings: 72 h treatment; read-out: IC50 determined by MTT assays, mean of drug-resistant models
From the text: as §1, §2, §3, §4, §5

[24] = molecular target: T1, human TopIIa (Homo sapiens, UniProt P11388); experiment: Cell-free decatenation assay; assay type: biochemical; settings: at 500 µM, read-out: TopoIIa inhibition
T1 construct: purchased TopoGen (Port Orange, FL, USA)
Method: The topoisomerase (Top) activity assay kit, including kinetoplast DNA (kDNA and recombinant human TopIIa enzyme, was obtained from TopoGen (Port Orange, FL, USA), agarose from PeqLab (Erlangen, Germany), 50 × TAE buffer from Roth (Karlsruhe, Germany) and ethidium bromide solution (10 mg/mL) from Sigma-Aldrich (Taufkirchen, Germany). Decatenation assays were performed as described previously[62] with slight modifications according to the manufacturer’s protocol. 100 µM of the recently described dual topoisomerase poison P8-D6 served as a positive control, and 5% DMSO as a solvent control. Briefly, the compounds were dissolved in DMSO and diluted to 20× the concentration to be tested. 1 µL of the resulting stock solutions were mixed with 18 µL of a buffer containing 200 ng kDNA and 1 mM ATP. Subsequently, 1 µL of a 1u/µL dilution of TopIIa enzyme was added and incubated at 37 °C for 30 min. Afterwards, the reaction was stopped by addition of Stop buffer, and electrophoresis was carried out on a 1% agarose gel in TAE buffer. The gel was stained with 0.5 µg/mL ethidium bromide, washed with water, and fluorescence images were captured with the LAS4000 system (Fujifilm, Duesseldorf, Germany). All steps were carried out on ice.

T1 sequence (P11388 whole entry): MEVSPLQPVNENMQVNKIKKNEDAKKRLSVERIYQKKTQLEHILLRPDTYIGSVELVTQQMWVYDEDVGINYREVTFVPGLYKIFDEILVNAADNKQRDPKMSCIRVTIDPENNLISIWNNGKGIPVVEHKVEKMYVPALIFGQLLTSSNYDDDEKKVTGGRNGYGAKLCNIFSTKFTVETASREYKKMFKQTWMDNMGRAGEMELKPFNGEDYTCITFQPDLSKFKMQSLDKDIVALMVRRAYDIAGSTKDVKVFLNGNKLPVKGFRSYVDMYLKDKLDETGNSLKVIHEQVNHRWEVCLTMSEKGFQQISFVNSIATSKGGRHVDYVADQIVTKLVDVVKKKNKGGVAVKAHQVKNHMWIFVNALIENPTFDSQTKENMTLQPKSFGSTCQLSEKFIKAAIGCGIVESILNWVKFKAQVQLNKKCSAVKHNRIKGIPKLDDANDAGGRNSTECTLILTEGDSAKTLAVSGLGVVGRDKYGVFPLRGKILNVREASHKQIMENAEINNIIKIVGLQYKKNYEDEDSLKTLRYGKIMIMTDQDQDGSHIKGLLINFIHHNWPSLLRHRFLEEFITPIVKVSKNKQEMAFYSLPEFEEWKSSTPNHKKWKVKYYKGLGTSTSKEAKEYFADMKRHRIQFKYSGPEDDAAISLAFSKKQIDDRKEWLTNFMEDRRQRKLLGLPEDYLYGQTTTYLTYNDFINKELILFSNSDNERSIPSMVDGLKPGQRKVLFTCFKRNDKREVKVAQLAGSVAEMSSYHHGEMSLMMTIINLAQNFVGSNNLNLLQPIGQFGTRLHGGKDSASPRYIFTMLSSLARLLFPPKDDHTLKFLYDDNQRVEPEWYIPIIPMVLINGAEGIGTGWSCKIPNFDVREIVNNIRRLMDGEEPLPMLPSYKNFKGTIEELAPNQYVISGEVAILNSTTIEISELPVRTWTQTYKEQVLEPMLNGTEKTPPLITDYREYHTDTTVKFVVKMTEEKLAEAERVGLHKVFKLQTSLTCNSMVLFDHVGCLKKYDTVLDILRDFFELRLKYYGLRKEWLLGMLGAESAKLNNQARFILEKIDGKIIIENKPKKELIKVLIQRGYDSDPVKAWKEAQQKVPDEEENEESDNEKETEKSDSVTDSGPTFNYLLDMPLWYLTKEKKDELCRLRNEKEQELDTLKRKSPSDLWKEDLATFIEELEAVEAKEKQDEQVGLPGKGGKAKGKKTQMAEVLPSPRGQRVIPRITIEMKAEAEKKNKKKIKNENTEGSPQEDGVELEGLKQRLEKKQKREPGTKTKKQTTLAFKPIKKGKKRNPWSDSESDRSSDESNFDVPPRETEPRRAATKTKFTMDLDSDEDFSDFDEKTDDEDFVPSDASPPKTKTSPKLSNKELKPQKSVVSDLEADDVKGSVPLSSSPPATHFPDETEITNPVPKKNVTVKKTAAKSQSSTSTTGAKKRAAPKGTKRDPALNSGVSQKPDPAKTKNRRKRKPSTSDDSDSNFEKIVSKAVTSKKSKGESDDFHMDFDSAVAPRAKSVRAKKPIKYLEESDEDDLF

SMILES: C=CC1(C)C=C2C(=O)C3(OC(C)=O)OC(=O)C4(CCCC(C)(C)C34)C2(O)CC1 (stereo not drawn) [Compound 2]
IC50 [1]: 2290 ± 130 nM | IC50 [2]: 2680 ± 40 nM | IC50 [3]: 950 ± 20 nM | IC50 [4]: 3.76 ± 0.04 µM | IC50 [5]: 1560 ± 160 nM | IC50 [6]: 2250 ± 480 nM

IC50 [7]: 44.8 ± 0.54 µM | IC50 [8]: 59.3 ± 4.51 µM | IC50 [10]: 84.5 ± 8.29 µM | IC50 [12]: 41.7 ± 1.49 µM | IC50 [13]: 51.9 ± 7.19 µM | IC50 [19]: > 100 µM | IC50 [20]: > 100 µM | IC50 [22]: > 100 µM | inhibition at 500 µM [24]: ~50%
SMILES: C=C[C@]1(C)C=C2[C@@H](O)[C@@]3(O)OC(=O)[C@@]4(CCCC(C)(C)[C@H]34)[C@@]2(O)CC1 [Compound 15, sphaeropsidin B, reference compound]
IC50 [9]: 37.8 ± 1.5 µM | IC50 [11]: 43.1 ± 1.07 µM | IC50 [14]: > 100 µM | IC50 [15]: > 100 µM | IC50 [16]: > 100 µM | IC50 [17]: > 100 µM | IC50 [18]: > 100 µM | IC50 [21]: > 100 µM | IC50 [23]: > 100 µM
